# Patent publication US11118208B2, “Methods for modulating protein galactosylation profiles of recombinant proteins using peracetyl galactose” (ARES TRADING S.A., priority 2016, dated 2021)
# Several values for one entry are separate records, joined by “and”; a condition that tells them apart may be missing. Identical values can stand only once.
# What was measured:
# Type in all cases: cell-based, Chinese hamster
# [1] = tested on: mAb1 cells (CHO-S cells expressing IgG1 mAb1); assay: Fed-batch culture of mAb1 cells in deepwell plates (DWP): viable cell density, viability, titer
# Method: (§1) First assays were performed with an antibody produced in a CHO cell line: CHO-S cells expressing IgG1 mAb1, herein “Cells mAb1” or “mAb1 cells”. “mAb1” is a fully human monoclonal antibody directed against a soluble protein. Its isoelectric point (pI) is about 8.20-8.30.
# (§2) Cells expressing mAb1 were inoculated at 0.3×10^6 cells per millilitre (mL), whereas Cells expressing mAb2 were inoculated at 0.2×10^6 cells per millilitre (mL).
# (§3) For examples 1-3: A serum-free chemically defined culture medium was used. It was used as it is, or it was supplemented with α- or β-2-F-peracetyl galactose (herein α- or β-2F-pGal; Biosynth & AX Molecules) at different concentrations (0-200 μM before seeding). The concentrations indicated on FIGS. 1, 2, 3 and 4 are the concentrations in α- or β-2F-pGal in the culture medium at day 0, just before the inoculation. The culture medium was fed, on a regular basis, with a chemically defined feed medium, as well as with glucose in order to keep said glucose level in the range of >0 to about 8 g/L (feeds are done at days 3, 5, 7, 10 and 12).
# (§4) The cultures were performed in deepwell plates (DWP) with a working volume of 450 μL. They were incubated at 36.5° C., 5% de CO2, 90% humidity and shaken at 320 rpm. Each of the fed-batch culture lasted 14 days. It is well known that experiments in DWP are artificial, although they allow a first screening of culture conditions. In order to confirm that the results obtained in DWP were reproducible at higher scale, similar experiments were also run in TubeSpin® (also called herein shake tubes or ST), with a working volume of 30 mL cell culture (same culture condition than for deepwell plates).
# For DWP experiments, viable cell density and viability were measured with the Guava easyCyte® flow cytometer. Antibody titers were measured with the fortéBIO Octet®.
# (§5) The cells were cultivated and the results analysed as disclosed in the material and method section. It is noted that the controls (or control conditions) according to the present invention correspond to cells grown without peracetyl galactose.
# [2] = tested on: mAb2 cells (CHO-Ki cells expressing IgG1 mAb2); assay: Fed-batch culture of mAb2 cells in TubeSpin: viable cell density, viability, titer
# Method: (§6) Additional assays were performed with another antibody also produced in another CHO cell line: CHO-Ki cells expressing IgG1 mAb2, herein “Cells mAb2” or “mAb2 cells”. “mAb2” is a humanized monoclonal antibody directed against a receptor found on the cell membrane. Its isoelectric point (pI) is about 9.30.
# as §2, §3, §4
# (§7) For TubeSpin® experiments, viable cell density and viability were measured with the ViCell®. Antibody titers were measured using Biacore®.
# [3] = tested on: mAb1 cells (CHO-S cells expressing IgG1 mAb1); assay: Fed-batch culture of mAb1 cells in TubeSpin (shake tubes): viable cell density, viability, titer
# Method: as §1, §2, §3, §4, §7
# [4] = tested on: galactosylation of mAb1 antibody (mAb1 cells); assay: Glycosylation profile of mAb1 produced in TubeSpin (CGE-LIF); conditions: for monogalactosylated form changed by (Example 2.2) / total level of galactosylation decreased by (Example 2.2): shake tubes, CGE-LIF
# Method: as §1, §3, §4
# (§8) Glycosylation profiles were established by capillary gel electrophoresis with laser-induced fluorescence (CGE-LIF; for DWP and for Shake tubes experiments) or by Ultra Performance Liquid Chromatography-2-amino-benzamide labelling technique (2AB-UPLC; for Shake tubes experiments). Groups of glycans were defined as thereafter in Table 3.
# [5] = tested on: galactosylation of mAb1 antibody (mAb1 cells); assay: Glycosylation profile of mAb1 produced in DWP (CGE-LIF)
# Method: as §1, §3, §4, §8, §5
# [6] = tested on: galactosylation of mAb2 antibody (mAb2 cells); assay: Glycosylation profile of mAb2 produced in TubeSpin (2AB-UPLC)
# Method: as §6, §3, §4, §8
smiles,measurement,setting,value
"CC(=O)OC[C@H]1OC(OC(C)=O)[C@H](F)[C@@H](OC(C)=O)[C@H]1OC(C)=O (stereo in doubt) [α-2F-pGal, α/β-D-galactopyranose, 2-deoxy-2-fluoro-,1,3,4,6-tetraacetate]",decrease of titers comparing to control,[1]; concentration higher than 60 μM,about 1.2 factor
same,impact on protein titre,[1]; concentrations between 30 and 60,no impact on protein titre
same,impact on cell growth,[1]; concentrations of about 60 μM and higher,negative impact on cell growth
same,impact on cell growth until the end of culture,[1]; concentrations up to 30 μM in medium,no impact on cell growth
same,protein titer compared to the control,"[1]; media concentration up to 60 μM, day 10 and day 14",stays above the protein titer of the control
same,"impact on cell density, cell viability and protein titer",[1]; media concentrations below 30 μM,do not impact
same,titer at day 7,[2]; 30 μM,~720 mg/L
same,titer at day 14,[2]; 30 μM,3400 to 3420 mg/L
same,titer at day 7,[2]; 60 μM,~720 mg/L
same,titer at day 14,[2]; 60 μM,3400 to 3420 mg/L
same,titer at day 7,[2]; 90 μM,about 670 mg/L
same,titer at day 14,[2]; 90 μM,~3200 mg/L
same,peak viable cell density,"[2]; 90 μM, shake tubes",10.0 ×106 viable cells/mL
same,productivity,[2]; 30 and 60 μM,globally unchanged
same,overall viable cell densities compared to the control,"[2]; 30 and 60 μM, shake tubes",comparable to the control
same,cell viability at day 7,[2]; entire supplement concentration range,about 97%
same,viabilities compared to the control condition,[2]; entire supplement concentration range (30-90 μM),comparable to the control condition
same,product titer at the end of the culture (day 14),"[3]; 30 μM, shake tubes",2050 mg/L
same,product titer at the end of the culture (day 14),"[3]; 60 μM, shake tubes, listed as α-2F-p-galactose",2130 mg/L
same,product titer at the end of the culture (day 14),"[3]; 90 μM, shake tubes",2225 mg/L
same,growth inhibitory effect in the first part of the culture,"[3]; 30, 60 and 90 μM, shake tubes",no growth inhibitory effect
same,cell densities compared to control from day 10 until the end of the culture,"[3]; 30 and 90 μM, shake tubes",slightly lower
same,impact on cell growth or protein titer until the end of culture,"[3]; any one of 30, 60 and 90 μM, TubeSpin",no negative impact on cell growth or protein titer
same,effect on cell culture performance,"[3]; between 0 and 90 μM α-2F-p-galactose, 60 μM β-2F-p-galactose, shake tubes",No detrimental effect
same,"protein titer compared to the control at culture days 5, 7, 10, 12 and 14","[3]; α 30-90 μM, β 60 μM, shake tubes, listed as α-2F-p-galactose",comparable at all time points
same,G1F absolute change compared to the control,"[4]; 30 μM, TubeSpin",1.9%
same,G2F absolute change compared to the control,"[4]; 30 μM, TubeSpin",0.11%
same,relative decrease of galactosylated N-oligosaccharides compared to control,"[4]; 30 μM, TubeSpin",about 16%
same,monogalactosylated form changed by (Example 2.2),[4]; 30 μM,−1.9%
same,total level of galactosylation decreased by (Example 2.2),[4]; 30 μM,2.0%
same,G1F absolute change compared to the control,"[4]; 60 μM, TubeSpin",4.3%
same,G2F absolute change compared to the control,"[4]; 60 μM, TubeSpin",0.27%
same,absolute change of galactosylated N-oligosaccharides compared to the control,"[4]; 60 μM, TubeSpin",4.61% and ~4.5%
same,relative decrease of galactosylated N-oligosaccharides compared to control,"[4]; 60 μM, TubeSpin",~37%
same,total level of galactosylation decreased by (Example 2.2),[4]; 60 μM,4.6%
same,monogalactosylated form changed by (Example 2.2),"[4]; 60 μM, listed as α-2F-peracetyl-galactose",−4.3%
same,G1F absolute change compared to the control,"[4]; 90 μM, TubeSpin",4.3%
same,G2F absolute change compared to the control,"[4]; 90 μM, TubeSpin",0.33%
same,relative decrease of galactosylated N-oligosaccharides compared to control,"[4]; 90 μM, TubeSpin",~36%
same,monogalactosylated form changed by (Example 2.2),[4]; 90 μM,−4.3%
same,total level of galactosylation decreased by (Example 2.2),[4]; 90 μM,−4.5%
same,G1F absolute change compared to the control,[5]; 30 μM,1.1%
same,G2F absolute change compared to the control,[5]; 30 μM,0.2%
same,absolute change in galactosylated N-oligosaccharide compared to the control,[5]; 30 μM,1.3%
same,relative decrease of galactosylated N-oligosaccharides compared to control,[5]; 30 μM,17%
same,galactosylated N-oligosaccharides of the protein,[5]; 30 μM in medium,8.3%
same,G1F absolute change compared to the control,[5]; 60 μM,2.5%
same,G2F absolute change compared to the control,[5]; 60 μM,0.3%
same,absolute change in galactosylated N-oligosaccharide compared to the control,[5]; 60 μM,2.8%
same,relative decrease of galactosylated N-oligosaccharides compared to control,[5]; 60 μM,32%
same,galactosylated N-oligosaccharides of the protein,[5]; 60 μM in medium,6.8%
same,G1F absolute change compared to the control,[5]; 120 μM,3.1%
same,G2F absolute change compared to the control,[5]; 120 μM,0.35%
same,absolute change in galactosylated N-oligosaccharide compared to the control,[5]; 120 μM,3.5%
same,relative decrease of galactosylated N-oligosaccharides compared to control,[5]; 120 μM,40%
same,galactosylated N-oligosaccharides of the protein,[5]; 120 μM in medium,6.0%
same,G1F absolute change compared to the control,[5]; 200 μM,4.4%
same,G2F absolute change compared to the control,[5]; 200 μM,0.4%
same,absolute change in galactosylated N-oligosaccharide compared to the control,[5]; 200 μM,4.8%
same,relative decrease of galactosylated N-oligosaccharides compared to control,[5]; 200 μM,52%
same,galactosylated N-oligosaccharides of the protein,[5]; 200 μM in medium,4.8%
same,inhibition effect on galactosylation,[5]; below 30,neither α- or β-2F-pGal does have a significant inhibition effect on galactosylation
same,inhibition effect on galactosylation,[5]; concentrations higher than 30 μM,a significant inhibition effect is observed
same,effect on the overall fucosylated species,[6],+0.5%
same,FA2G1 decrease (absolute change),[6]; 30 μM,−0.85%
same,change of the FA2G2 abundance,[6]; 30 μM,−0.09%
same,reduction of galactosylation (absolute change),[6]; 30 μM,−0.95%
same,FA2G1 decrease (absolute change),[6]; 60 μM,−1.85%
same,change of the FA2G2 abundance,[6]; 60 μM,−0.19%
same,reduction of galactosylation (absolute change),[6]; 60 μM,−2.05%
same,FA2G1 decrease (absolute change),[6]; 90 μM,−1.2%
same,change of the FA2G2 abundance,[6]; 90 μM,−0.19%
same,reduction of galactosylation (absolute change),[6]; 90 μM,−1.4%
